We go through nine compounds from patent publication US4542021A, “Antitumor compositions for non-injection administration” (Yamasa Shoyu Kabushiki Kaisha, priority 1978, dated 1985).

Like-named read-outs stand apart in the source and are kept apart here.

This assay relates to L1210 leukemia. Nature of the assay: Therapeutic test on L1210 leukemia (oral, once a day). The assay is classed as in vivo, BDF1 mice. The settings on record: Mus musculus, read-out: % ILS (increase in life span). As to the method:
The L1210 leukemic cell suspension (1×10^5 cells/0.2 ml) was implanted intraperitoneally in BDF1 mice (males, 18 to 22 g, females, 16 to 20 g) (7 mice per group). From 24 hours after the implantation to the 5th day thereafter, the predetermined doses of the compounds to be tested were orally administered to the mice consecutively once a day. The compounds to be tested were dissolved or suspended in a phosphate-bufferedsalt solution (PBS) containing 0.5% carboxymethylcellulose, and given at a dose rate of 0.1 ml per 10 g of each mouse's body weight. To a control group, only the same solvent as used for the dissolution of the compounds to be tested was administered in the same way. The mean survival times (MST) for each group were calculated, and the corresponding increase in life span (%ILS) was obtained in accordance with the following formula, the results of which are shown in Table 1. [formula]

Setting [1] is: L1210, 720 h, oral, 100 mg/kg/day, > means some mice survived the test period (30 days).
Where [2] appears, read: L1210, 720 h, oral, 200 mg/kg/day, > means some mice survived the test period (30 days).
Where [3] appears, read: L1210, 720 h, oral, 400 mg/kg/day, > means some mice survived the test period (30 days).

Regarding `CCCCCCCCCCCCCCOP(=O)(O)OC[C@H]1O[C@@H](n2ccc(N)nc2=O)[C@@H](O)[C@@H]1O` [C14-ara-CMP ester, ara-CMP-tetradecyl ester], the ILS at 100 mg/kg/day under setting [1] stood at 88%. Besides, the ILS at 200 mg/kg/day under setting [2] was 105%. The ILS at 400 mg/kg/day under setting [3] worked out at 134%. The ILS at 50 mg/kg/day (L1210, oral) was determined as 62%.

Regarding `CCCCCCCCCCCCCCCOP(=O)(O)OC[C@H]1O[C@@H](n2ccc(N)nc2=O)[C@@H](O)[C@@H]1O` [C15-ara-CMP ester, ara-CMP-pentadecyl ester], under setting [1], the ILS at 100 mg/kg/day stood at 95%. The ILS at 200 mg/kg/day under setting [2] amounted to 135%. For the same compound, the ILS at 50 mg/kg/day (L1210, oral) is 70%.

Consider `CCCCCCCCCCCCCCCCCOP(=O)(O)OC[C@H]1O[C@@H](n2ccc(N)nc2=O)[C@@H](O)[C@@H]1O` [C17-ara-CMP ester, ara-CMP-heptadecyl ester], for which the ILS at 100 mg/kg/day under setting [1] is 123%. The ILS at 200 mg/kg/day under setting [2] was above 154%. For the same compound, under setting [3], the ILS at 400 mg/kg/day is -15%. Moreover, for the setting “L1210, oral, 6.25 mg/kg/day”, the ILS at 6.25 mg/kg/day was found to be 11%. Also, for the setting “L1210, oral”, the ILS at 12.5 mg/kg/day turned out to be 32%, the ILS at 25 mg/kg/day amounted to 52% and the ILS at 50 mg/kg/day is 87%.

Regarding `CCCCCCCCCCCCCCCCCCCCCCCOP(=O)(O)OC[C@H]1O[C@@H](n2ccc(N)nc2=O)[C@@H](O)[C@@H]1O` [C23-ara-CMP ester, ara-CMP-tricosyl ester], the ILS at 100 mg/kg/day under setting [1] was determined as 81%. The ILS at 200 mg/kg/day under setting [2] was 110%. The ILS at 400 mg/kg/day under setting [3] is 128%. Also, under “L1210, oral”, the ILS at 12.5 mg/kg/day was 29%, the ILS at 25 mg/kg/day turned out to be 51% and the ILS at 50 mg/kg/day was 65%.

With `CCCCCCCCCCOP(=O)(O)OC[C@H]1O[C@@H](n2ccc(N)nc2=O)[C@@H](O)[C@@H]1O` [ara-CMP decyl ester, reference compound], under setting [1], the ILS at 100 mg/kg/day stood at 8%. Under setting [2], the ILS at 200 mg/kg/day came to 36%. The ILS at 400 mg/kg/day under setting [3] is 39%. Also, where the note is “L1210, oral”, the ILS at 25 mg/kg/day came to 0% and the ILS at 50 mg/kg/day is 4%.

Turning to `CCCCCCCCCCCCCCCCCCCCCCCCCCOP(=O)(O)OC[C@H]1O[C@@H](n2ccc(N)nc2=O)[C@@H](O)[C@@H]1O` [ara-CMP hexacosyl ester, reference compound], under setting [1], the ILS at 100 mg/kg/day is 27%. The ILS at 200 mg/kg/day under setting [2] came out at 52%. The ILS at 400 mg/kg/day under setting [3] was found to be 86%. Also, under “L1210, oral”, the ILS at 25 mg/kg/day worked out at 14% and the ILS at 50 mg/kg/day is 23%.

As to `COP(=O)(O)OC[C@H]1O[C@@H](n2ccc(N)nc2=O)[C@@H](O)[C@@H]1O` [ara-CMP methyl ester, reference compound], where the note is “L1210, po, 720 h”, the ILS at 100 mg/kg/day is 13%, the ILS at 200 mg/kg/day was 48% and the ILS at 400 mg/kg/day was 65%.

Consider `CCCCCCCCCCCOP(=O)(O)OC[C@H]1O[C@@H](n2ccc(N)nc2=O)[C@@H](O)[C@@H]1O` [ara-CMP undecyl ester, reference compound], for which the ILS at 100 mg/kg/day under setting [1] amounted to 31%. Also, the ILS at 200 mg/kg/day under setting [2] was found to be 78%. Further, for the setting “L1210, oral”, the ILS at 25 mg/kg/day stood at 12% and the ILS at 50 mg/kg/day came to 27%.

In the case of `Nc1ccn([C@@H]2O[C@H](COP(=O)(O)O)[C@@H](O)[C@@H]2O)c(=O)n1` [ara-CMP, arabinofuranosylcytosine-5'-phosphate, reference compound], under setting [1], the ILS at 100 mg/kg/day was 21%. Also, under setting [2], the ILS at 200 mg/kg/day was 57%. For the same compound, the ILS at 400 mg/kg/day under setting [3] was determined as 73%. For the same compound, the ILS at 50 mg/kg/day (L1210, oral) was determined as 8%.
